Two molecules from ChEMBL document CHEMBL1124001, “Synthesis and antileukemic activity of bis[[(carbamoyl)oxy]methyl]- substituted pyrrolo[2,1-a]isoquinolines, pyrrolo[1,2-a]quinolines, pyrrolo[2,1-a]isobenzazepines, and pyrrolo[1,2-a]benzazepines” (J Med Chem, 1988) can be followed below.

The subject of data set [1] is Mus musculus. Description: Net log cell kill was determined after injecting 1.87 mg/kg intraperitoneally in CD2F1 mice. It is filed as functional. The settings on record: route intraperitoneal.
Data set [2] has as its system Mus musculus. Description: Body weight change of test animals to that of control was determined after injection at 60 mg/kg intraperitoneally in CD2F1 mice. The data set is classed as functional. The note with it: route intraperitoneal.
In data set [3] the test system is Mus musculus. Description: Body weight change of test animals to that of control was determined after injection at 7.5 mg/kg intraperitoneally in CD2F1 mice. It is filed as functional. The note with it: route intraperitoneal.
In data set [4] the test system is Mus musculus. Description: Ratio of treated to that of untreated tumor-bearing control animals at 1.87 mg/kg intraperitoneally in CD2F1 mice was determined. The data set is classed as functional. The settings on record: route intraperitoneal.
The subject of data set [5] is Mus musculus. Description: Ratio of treated to that of untreated tumor-bearing control animals at 15 mg/kg intraperitoneally in CD2F1 mice was determined. The data set is classed as functional. The note with it: route intraperitoneal.
Data set [6] relates to Mus musculus. Description: Body weight change of test animals to that of control was determined after injection at 1.87 mg/kg intraperitoneally in CD2F1 mice. The data set is classed as functional. The note with it: route intraperitoneal.
Data set [7] deals with Mus musculus. Description: Net log cell kill was determined after injecting 7.5 mg/kg intraperitoneally in CD2F1 mice. The note with it: route intraperitoneal. The data set is classed as functional.
For data set [8], the system named is Mus musculus. Description: Toxicity day survivors was determined by the ratio of animals survived to that of test animals at 7.5 mg/kg intraperitoneally in CD2F1 mice; 6/6. It is filed as organism-based. The settings on record: in vivo, ip. On the set-up: dose 7.5 mg/kg, route intraperitoneal.
The test system of data set [9] is Mus musculus. Description: Toxicity day survivors was determined by the ratio of animals survived to that of test animals at 60 mg/kg intraperitoneally in CD2F1 mice; 4/6. The settings on record: in vivo, ip. On the set-up: dose 60 mg/kg, route intraperitoneal. It is filed as organism-based.
Data set [10] deals with Mus musculus. Description: Body weight change of test animals to that of control was determined after injection at 15 mg/kg intraperitoneally in CD2F1 mice. The settings on record: route intraperitoneal. It is filed as functional.
The subject of data set [11] is Mus musculus. Description: Toxicity day survivors was determined by the ratio of animals survived to that of test animals at 3.75 mg/kg intraperitoneally in CD2F1 mice; 6/6. The settings on record: in vivo, ip. More on the design: dose 3.75 mg/kg, route intraperitoneal. The data set is classed as organism-based.
Data set [12] has as its system Mus musculus. Description: Net log cell kill was determined after injecting 3.75 mg/kg intraperitoneally in CD2F1 mice. It is filed as functional. The settings on record: route intraperitoneal.
The test system of data set [13] is Mus musculus. Description: Net log cell kill was determined after injecting 15 mg/kg intraperitoneally in CD2F1 mice. It is filed as functional. The settings on record: route intraperitoneal.
The test system of data set [14] is Mus musculus. Description: Body weight change of test animals to that of control was determined after injection at 3.75 mg/kg intraperitoneally in CD2F1 mice. The data set is classed as functional. The settings on record: route intraperitoneal.
In data set [15] the test system is Mus musculus. Description: Toxicity day survivors was determined by the ratio of animals survived to that of test animals at 1.87 mg/kg intraperitoneally in CD2F1 mice; 6/6. It is filed as organism-based. On the set-up: dose 1.87 mg/kg, route intraperitoneal. The settings on record: in vivo, ip.
The subject of data set [16] is Mus musculus. Description: Toxicity day survivors was determined by the ratio of animals survived to that of test animals at 15 mg/kg intraperitoneally in CD2F1 mice; 6/6. The data set is classed as organism-based. The note with it: in vivo, ip. More on the design: dose 15 mg/kg, route intraperitoneal.
The subject of data set [17] is Mus musculus. Description: Ratio of treated to that of untreated tumor-bearing control animals at 7.5 mg/kg intraperitoneally in CD2F1 mice was determined. It is filed as functional. The settings on record: route intraperitoneal.
Data set [18] has as its system Mus musculus. Description: Ratio of treated to that of untreated tumor-bearing control animals at 3.75 mg/kg intraperitoneally in CD2F1 mice was determined. The note with it: route intraperitoneal. It is filed as functional.
Data set [19] is filed under the species Mus musculus. Description: Ratio of treated to that of untreated tumor-bearing control animals was determined. It is filed as functional.
Data set [20] deals with Mus musculus. Description: Ratio of treated to that of untreated tumor-bearing control animals 30 mg/kg intraperitoneally in CD2F1 mice was determined. The data set is classed as functional. The note with it: route intraperitoneal.
For data set [21], the system named is Mus musculus. Description: Toxicity day survivors was determined by the ratio of animals survived to that of test animals at 240 mg/kg intraperitoneally in CD2F1 mice; 6/6. The data set is classed as organism-based. On the set-up: dose 240 mg/kg, route intraperitoneal. The settings on record: in vivo, ip.
Data set [22] relates to Mus musculus. Description: Body weight change of test animals to that of control was determined after injection at 240 mg/kg intraperitoneally in CD2F1 mice. It is filed as functional. The note with it: route intraperitoneal.
For data set [23], the system named is Mus musculus. Description: Net log cell kill was determined after injecting 60 mg/kg intraperitoneally in CD2F1 mice. It is filed as functional. The settings on record: route intraperitoneal.
For data set [24], the system named is Mus musculus. Description: Toxicity day survivors was determined by the ratio of animals survived to that of test animals at 120 mg/kg intraperitoneally in CD2F1 mice; 6/6. It is filed as organism-based. More on the design: dose 120 mg/kg, route intraperitoneal. The note with it: in vivo, ip.
In data set [25] the test system is Mus musculus. Description: Net log cell kill was determined after injecting 240 mg/kg intraperitoneally in CD2F1 mice. It is filed as functional. The note with it: route intraperitoneal.
In data set [26] the test system is Mus musculus. Description: Body weight change of test animals to that of control was determined after injection at 120 mg/kg intraperitoneally in CD2F1 mice. The note with it: route intraperitoneal. It is filed as functional.
Data set [27] has as its system Mus musculus. Description: Body weight change of test animals to that of control was determined after injection at 30 mg/kg intraperitoneally in CD2F1 mice. The data set is classed as functional. The note with it: route intraperitoneal.
Data set [28] concerns Mus musculus. Description: Ratio of treated to that of untreated tumor-bearing control animals at 120 mg/kg intraperitoneally in CD2F1 mice was determined. The settings on record: route intraperitoneal. It is filed as functional.
The test system of data set [29] is Mus musculus. Description: Toxicity day survivors was determined by the ratio of animals survived to that of test animals at 60 mg/kg intraperitoneally in CD2F1 mice; 6/6. It is filed as organism-based. More on the design: dose 60 mg/kg, route intraperitoneal. The settings on record: in vivo, ip.
In data set [30] the test system is Mus musculus. Description: Toxicity day survivors was determined by the ratio of animals survived to that of test animals at 30 mg/kg intraperitoneally in CD2F1 mice; 6/6. The note with it: in vivo, ip. The data set is classed as organism-based. More on the design: dose 30 mg/kg, route intraperitoneal.
Data set [31] has as its system Mus musculus. Description: Net log cell kill was determined after injecting 30 mg/kg intraperitoneally in CD2F1 mice. The data set is classed as functional. The note with it: route intraperitoneal.
The subject of data set [32] is Mus musculus. Description: Net log cell kill was determined after injecting 120 mg/kg intraperitoneally in CD2F1 mice. It is filed as functional. The note with it: route intraperitoneal.
The test system of data set [33] is Mus musculus. Description: Ratio of treated to that of untreated tumor-bearing control animals at 240 mg/kg intraperitoneally in CD2F1 mice was determined. The data set is classed as functional. The note with it: route intraperitoneal.

For `CNC(=O)OCc1c(COC(=O)NC)c2n(c1C)-c1ccc(OC)cc1CCC2`, the KE in the data set with Mus musculus [1] was -0.74; in the data set with Mus musculus [7], 0.55; in the data set with Mus musculus [12], -0.06; in the data set with Mus musculus [13], 0.27. Besides, the T-C is recorded as -2.8 g with Mus musculus [2]; -1.3 g in the data set on Mus musculus [3]; -1 g in the data set with Mus musculus [6]; -1.2 g in the data set with Mus musculus [10]; -1.6 g in the data set with Mus musculus [14]. The T/C (in general, the ratio of treated to control) in the data set with Mus musculus [4] is 125%; in the data set on Mus musculus [5], 144%; in the data set with Mus musculus [17], 147%; in the data set on Mus musculus [18], 135%. For the same molecule, the TDS in the data set on Mus musculus [8] is 6; in the data set on Mus musculus [9], 4; in the data set on Mus musculus [11], 6; in the data set with Mus musculus [15] it was 6; in the data set on Mus musculus [16] it was 6.

Regarding `COc1ccc2c(ccc3c(COC(=O)NC(C)C)c(COC(=O)NC(C)C)c(C)n32)c1`, the T/C in the data set listed under Mus musculus [19] came out at 128%; with Mus musculus [20] it was 112%; with Mus musculus [5], 109%; with Mus musculus [28] it was 131%; in the data set on Mus musculus [33], 154%. Moreover, the TDS with Mus musculus [21], in the data set with Mus musculus [24], in the data set with Mus musculus [29], in the data set on Mus musculus [30] and in the data set on Mus musculus [16] was 6 in each case. The T-C is listed as 0.1 g in the data set on Mus musculus [2]; -3.5 g with Mus musculus [22]; -0.6 g with Mus musculus [26]; 0 g with Mus musculus [27]; -0.1 g with Mus musculus [10]. Further, the KE in the data set with Mus musculus [23] is -0.3; in the data set with Mus musculus [25], 1.19; with Mus musculus [31], -0.42; in the data set on Mus musculus [32], -0.12; with Mus musculus [13], -1.47.
